Experimental data: patent US10648917B2, “Luminescent compositions and applications thereof” (THE PENN STATE RESEARCH FOUNDATION, priority 2015, dated 2020)

What was measured:
[1] = Photostability under continuous excitation for 3 hours; assay type: physicochemical
Experimental: (§1) Fluorescence spectra were recorded by a Horiba FluoroMax-4 spectrofluorometer. All samples were measured at a concentration corresponding to an optical density of 0.1 in water and a slit size of 1 nm by 1 nm unless specified. Quantum yields were also determined on same spectrofluorometer by using a Quantum-φ integration sphere at samples' maximum excitation wavelength and at an increment of 0.3 nm. Photostability studies were done by continuously exciting samples at their maximum excitation wavelength and monitoring at the maximum emission wavelength.
(§2) Fluorescence spectra were recorded on a Horiba FluoroMax-4 spectrofluorometer (Horiba Scientific, Edison N.J.). All polymer and samples were characterized at a concentration of 2 wt % in 1,4-dioxane and a slit size of 1 nm by 1 nm unless otherwise specified. The fluorescence properties of small molecule dyes were also measure in 2 wt % DI water solutions at same conditions as polymer solutions. BPLPs were also degraded in 1M K2CO3 solution at 37° C. for 24 hours and then neutralized with 1N HCl solution to pH7. The resulting degradation solutions were subject to further PL characterizations. Quantum yields were also determined on the same spectrofluorometer by using a Quantum-φ integration sphere (Horiba Scientific, Edison N.J.) at the same concentration and slit size with the blank solvent as the reference. Photostability of small molecules and polymers were determined by monitoring the emission intensity decay at their max. Excitation and emission wavelengths over 3 hours of continuous lumination in the spectrofluorometer.
Photostability of CFDs was characterized thereafter, since traditional organic dyes suffer from photobleaching. Various CFDs were tested under their maximum excitation and emission wavelengths for 3 hours, and the photoluminescence was normalized to the initial intensity.

[2] = Fluorescence spectra, absorbance and quantum yield (spectrofluorometer, integration sphere); assay type: physicochemical; settings: for Shifting (emission shifting with excitation wavelength): CFD dyes; for Φ (quantum yield) / λem (maximum emission wavelength) / λex (maximum excitation wavelength) / ϵ (extinction coefficiency): Table III; for Max. Em. Wavelength / Max. Ex. Wavelength / Quantum Yield: representative CFDs, Table I
Experimental: Fluorescence spectra were recorded by a Horiba FluoroMax-4 spectrofluorometer. All polymer and small molecule samples were measured at a concentration of 2% w/w in 1,4-dioxane or DI water and a slit size of 1 nm by 1 nm unless otherwise specified. Quantum yields were also determined on the same spectrofluorometer by using a Quantum-φ integration sphere at the same concentration and slit size with the blank solvent as the reference. ^1H-NMR, ^13C-NMR were performed on a JNM ECS 300 spectrometer using DMSO-d6 or D2O as solvents. Attenuated total reflection Fourier transform infrared (ATR-FTIR) spectra were collected with a Bruker V70 spectrometer using BPLP films. A Shimadzu HPLC-MS system with a Phenomenex Kinetex 2.6u XB-C18 100 mm×2.9 mm column, a SPD M20A PDA detector and a RF-20AXS fluorescence detector (Ex. 360 nm and Em. 430 nm) was used to characterize the structures of fluorophores as well. The mobile phase was a gradient of DI water and acetonitrile with 0-6 min 2% acetonitrile, 6-12 min 2%-30% acetonitrile, and 12-15 min 2% acetonitrile. The flow rate was 0.15 ml/min. Electrospray ionization mass spectroscopy (ESI-MS) was performed with a positive voltage of 4.5 kV and negative mode voltage −4.0 kV and a CDL temperature of 200° C. The analysis of the degradation products of BPLPs were conducted by immersing BPLPs in 1M K2CO3 solution at 37° C. for 24 hours. After degradation, the solutions were neutralized by 1N HCl solution to pH 7 and characterized by HPLC-MS as described above.
as §1, §2
(§3) Absorbance Spectra were recorded on Tecan Infinite M200 Pro UV-vis spectroscopy, and fluorescence spectra were recorded on Horiba FluoroMax-4 fluorospectroscopy at concentrations below 0.1 O.D. unless otherwise indicated. Quantum Yields were measured on the Quantum φ Integrating Sphere accessory to the FluoroMax-4, while lifetime measurements were determined through the Time-Correlation Single Photon Counting (TCSPC) accessory to the FluroMax-4. TCSPC was utilized in conjunction with NanoLED pulsed diode light source with peak excitation wavelength at 352 nm and at 10,000 counts peak preset. Emission was collected at the fluorescence λmax, unless otherwise indicated. For all pH-dependence experiments, sample pH was adjusted with sulfuric acid or sodium hydroxide. For all chloride-dependent quenching experiments, magnesium chloride hexahydrate (Sigma Aldrich) was used.

[3] = Halide fluorescence quenching (Stern-Volmer); assay type: physicochemical; settings: compared with CA-Cysteine
Experimental: as §3
When a fluorophore of [F] absorbs light energy, excitation raises a sub-population of [F] to the excited state, [F*], which then rapidly lose energy along radiative relaxation (kr) or non-radiative relaxation (knr) according to equation 7. If a quencher forms a complex with the excited fluorophore, an extra non-radiative component, kq, is added to equation 7 to account for the additional relaxation pathway that is a function of quencher concentration and its association constant.
[formula] Thus the quenching of fluorescence can be quantitatively analyzed by comparing the affected lifetimes. The Stern-Volmer (SV) relationship is used to determine kq, the bimolecular quenching rate constant for the diffusion coefficients of the fluorophore and quencher, by deriving a plot of τ0/τ versus [Q]:
[formula] Thus the linear slope of the SV plot, KSV, measures the efficiency of the quencher. Since sulfuric acid was used to study proton-induced quenching, the pH value was a better indicator of [H^+] due to incomplete dissociation of sulfuric acid at high concentrations. In the case of multiple quenchers, as will be discussed in this paper, equation 7 must include additional kq terms that result in modified form of equation 12 below:
[formula] If the two quenchers are act independently, the quencher of known quenching rate and concentration can be combined into the Y-intercept term in order to determine the quenching rate of the second, unknown quencher. […]
To translate halide quenching into quantitative sensing applications, a modified Stern-Volmer equation (Equation 14) was used to linearize the effects of two quenchers, protons and the halide being studied, on the fluorescence of CA-Cysteine. […]
Since the measured sample fluorescence is quenched by both protons and halides, the unquenched fluorescence, Io, was defined as the fluorescence of the neutral state CA-Cysteine in the absence of additional proton or halide quenchers. As mentioned above, the effects of protolytic equilibria stabilize around pH 2.2, where CA-Cysteine undergoes 99% conversion from the dianion state and is marked by constant fluorescence intensities (FIG. 13). […] Thus we chose the fluorescence intensity at pH 2.2 (in the absence of halides) as the unquenched reference signal, Io. IH,Cl in equation 23 is the sample fluorescence at the pH and halide concentration indicated. […]

[4] = pH dependence of fluorescence / pH sensing; assay type: physicochemical
Experimental: as §3
pH Dependence of CA-Cys Fluorescence. Of all solvent and environmental factors that affect fluorescence, CA-Cys appeared to display the greatest sensitivity to changes in pH. […] From a detailed analysis of FIG. 13, four correlations were observed. Fluorescence properties of CA-Cys were invariable from high basicity to a pH of 4.84, from which the excitation λmax began to red-shift from 350 nm, emission λmax began to red-shift from 418 nm, maximum fluorescence intensity began to decrease, and quantum yield began to decrease. As acidity was increased, all four trends continued until pH 2.44, from which the excitation λmax plateaued at 365 nm, emission plateaued at 445 nm, and fluorescence intensity and quantum yield both experienced a short local plateau. Similarly, Stokes shift increased from 67 nm to 80 nm in high acidity. Lastly, absorbance λmax shifted similarly to that of the maximum excitation, while absorbance intensities remained relatively constant. […] All of these patterns were reminiscent of a pH-dependent equilibrium, thus the predominant mechanism of intensity quenching and bathochromic shifts was hypothesized to be attributed to changes in protolytic equilibria. The noticeably linear quenching of intensities past pH 1.63 is discussed with respect to lifetime analysis herein below.
There is a predictable, linear increase in intensity from pH 3 to 4.5. Furthermore, emission collected at a fixed 445 nm is shown in FIG. 15 to be an isobestic point where intensities are independent of pH (up to pH 1), which should greatly improve the functionality of CA-Cys as a pH sensor. In other words, utilizing 445 nm as a dual-wavelength reference point allows for background subtraction and normalization with respect to absorbance or concentration. […] Furthermore, I418 nm/I445 nm increases linearly in the region of pH 3 to 4.5 for accurate determination of pH within this region, plotted and fitted with an R^2 value of 0.982. To sum up, I418 nm/I445 nm values near 1.6 indicate pH above 4.5, values below 0.7 indicate highly acidic environments below pH 3, while any intermediate I418 nm/I445 nm values can determine the exact pH with good accuracy. It is important to note that CA-Cys fluorescence is in accordance with Kasha's rule, i.e. fluorescence occurs from the lowest excited state, S1→S0, thus the emission λmax is independent of the excitation wavelength, and a fluorescence excitation scan at a fixed emission of 418 nm or 445 nm would provide the maximum fluorescence intensity for that emission wavelength. Also of importance is the reliable range of the isobestic point, which is broken at high acidities (noticeably below pH 1) due to dynamic quenching effects.

[5] = commercial halide sensors; cited from earlier work
[6] = Time-resolved fluorescence lifetime (TCSPC); assay type: physicochemical; settings: one-exponential decay, pulsed excitation at 352 nm, maximum emission wavelength
Experimental: Fluorescence lifetimes were determined by using the Time-Correlation Single Photon Counting (TCSPC) accessory to the FluroMax-4 (Horiba, NJ). NanoLED pulse light sources at wavelengths of 352 nm and 390 nm were used for excitation. For each decay curve, 10,000 photons were collected. Fluorescence lifetime decays were fitted with an exponential series according to equation 1 below:
[formula] where F(t) is the lifetime decay function with respect to time t, Ti is the lifetime value of the emitting species, A is the background offset, and Bi is the pre-exponential function of the emitting species. The method of least squares was used to quantify χ^2 based on the decay data and the fitting function, where χ^2 values smaller than 1.2 indicates a good fit; and values above 1.2 indicate need for multiple exponential fitting in equation 1. If the lifetime decay is dominated by one emitting species, the equation can be simplified to include only the first two terms. One exponential fitting is good for TPA based fluorophores. However, for DPR based fluorophores, only three exponential fitting gives a χ^2 smaller than 1.2. E. Computational Modeling
as §3
Fluorescence lifetime decays were fitted with an exponential series according to equation 5 below:
[formula] Where F(t) is the lifetime decay function with respect to time t, Ti is the lifetime value of the emitting species, A is the background offset, and Bi is the pre-exponential function of the emitting species. If the lifetime decay is dominated by one emitting species, the equation can be simplified to include only the first two terms. Bi measures the relative amplitude of the specified fluorophore, where the percent contribution of the fluorophore to the lifetime decay, f, is derived from equation 6:
[formula] The method of least squares was used to quantify χ^2 based on the decay data and the fitting function, where χ^2 values under 1.2 indicates a good fit, and values above 1.2 indicate need for additional terms in equation 5. Typically, an additional exponential term was necessary to improve the χ^2 value and account for the presence of a negligible 6 ns species, deemed to stem from by-products of CFD synthesis, impurities, or CFD dimers. Since the contribution from this species was minor, often less than 5%, it was not included in lifetime analysis.

Row | Shifting (emission shifting with excitation wavelength) [2] | Φ (quantum yield) [2] [%] | λem (maximum emission wavelength) [2] [nm] | λex (maximum excitation wavelength) [2] [nm] | ϵ (extinction coefficiency) [2] [M⁻¹ cm⁻¹] | Max. Em. Wavelength [2] [nm] | Max. Ex. Wavelength [2] [nm] | Quantum Yield [2] [%] | SMILES | pH dependence of halide quenching [5] | also measured
1 | No | 79.3 | 445 | 365 | 3880 | 445 | 365 | 79.3 | O=C(O)c1cc2n(c(=O)c1)CCS2 [CA-Cysteamine] |  | photostability ([1]; FIG. 19): strong photostability; halide sensitivity [3]: increase sensitivity of all halides across all pH
2 | Yes | 24.6 | 424 | 359 | 6.6 | 422 | 359 | 22.1 | CCCN1C(=O)C=C(C(=O)O)CC1=O [CA-Propylamine] |  | photobleaching relative to Fluorescein and Rhodamine B ([1]; 3 hours continuous excitation): less stable; pH sensitivity [4]: PH insensitive
3 |  |  |  |  |  |  |  |  | CC[n+]1cccc2cc(OC)ccc21.[I-] [MEQ] | quenched by halides independent of pH | 
4 |  |  |  |  |  |  |  |  | CCOC(=O)C[n+]1cccc2cc(OC)ccc21.[Br-] [MQAE] | quenched by halides independent of pH | 
5 |  |  |  |  |  |  |  |  | CCN(CC)c1ccc2c(-c3ccccc3C(=O)O)c3ccc(=[N+](CC)CC)cc-3oc2c1.[Cl-] [Rhodamine B, reference compound] |  | fluorescence lifetime τ [6]: 1.75 ns
6 |  |  |  |  |  |  |  |  | COc1ccc2c(ccc[n+]2CCCS(=O)(=O)[O-])c1 [SPQ] | quenched by halides independent of pH | 
